Source: US20260285850A1, “SUBSTITUTED OXAZOLIDINONES AND IMIDAZOLINONES AS HERBICIDES” (FMC CORPORATION, priority 2023, published 2026)

What was measured:
Assay type in all cases: in vivo
rice (Oryza sativa) = assay: Test B flooded paddy test, visual plant response rating 0-100; conditions: 250 g ai/ha, Flood, applied to paddy water, evaluated after 13 days
How it was run: (§1)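 Visual scores versus untreated controls were recorded 13 days after treatment of greenhouse-held plants. At the 2-leaf stage, pots were flooded 3 cm above the soil surface and compounds added straight to the water.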

[1] = test system: ducksalad (Heteranthera limosa); assay: as above; conditions: 250 g ai/ha, Flood, applied to paddy water, evaluated after 13 days
How it was run: as §1

[2] = test system: barnyardgrass (Echinochloa crusgalli); assay: as above; conditions: 250 g ai/ha, Flood, applied to paddy water, evaluated after 13 days
How it was run: as §1

[3] = test system: sedge, umbrella (small-flower umbrella sedge, Cyperus difformis); assay: as above; conditions: 250 g ai/ha, Flood, applied to paddy water, evaluated after 13 days
How it was run: as §1

[4] = test system: ragweed (common ragweed, Ambrosia artemisiifolia); assay: Test A preemergence soil spray, visual injury rating 0-100; conditions: 10 days, 0 = no effect, 100 = complete control; for Ragweed plant response rating (0-100): 31 g ai/ha; for Ragweed plant response rating (0 to 100 scale): 125 g ai/ha
How it was run: (§2)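 Directed preemergence spray onto seeded soil or postemergence spray onto 2-10 cm plants (loam plus sand); compound carried in surfactant-containing non-phytotoxic solvent. Injury rated by eye after 10 d greenhouse growth; 0 = no effect, 100 = complete control.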

[5] = test system: palmer (palmer amaranth, palmer pigweed, Amaranthus palmeri); assay: as above; conditions: 10 days, 0 = no effect, 100 = complete control; for Amaranth, Palmer plant response rating (0-100): 31 g ai/ha; for Amaranth, Palmer plant response rating (0 to 100 scale): 125 g ai/ha
How it was run: as §2

[6] = test system: ryegrass, Italian (italian ryegrass, Lolium multiflorum); assay: as above; conditions: 10 days, 0 = no effect, 100 = complete control; for Ryegrass, Italian plant response rating (0-100): 31 g ai/ha; for Ryegrass, Italian plant response rating (0 to 100 scale): 125 g ai/ha
How it was run: as §2

kochia (Bassia scoparia) [7] = assay: as above; conditions: 10 days, 0 = no effect, 100 = complete control; for Kochia plant response rating (0-100): 31 g ai/ha; for Kochia plant response rating (0 to 100 scale): 125 g ai/ha
How it was run: as §2

soybean (Glycine max) [8] = assay: as above; conditions: 10 days, 0 = no effect, 100 = complete control; for Soybean plant response rating (0-100): 31 g ai/ha; for Soybean plant response rating (0 to 100 scale): 125 g ai/ha
How it was run: as §2

[9] = test system: blackgrass (Alopecurus myosuroides); assay: as above; conditions: 10 days, 0 = no effect, 100 = complete control; for Blackgrass plant response rating (0-100): 31 g ai/ha; for Blackgrass plant response rating (0 to 100 scale): 125 g ai/ha
How it was run: as §2

[10] = test system: barnyardgrass (Echinochloa crus-galli); assay: as above; conditions: 10 days, 0 = no effect, 100 = complete control; for Barnyardgrass plant response rating (0-100): 31 g ai/ha; for Barnyardgrass plant response rating (0 to 100 scale): 125 g ai/ha
How it was run: as §2

corn (Zea mays) [11] = assay: as above; conditions: 10 days, 0 = no effect, 100 = complete control; for Corn plant response rating (0-100): 31 g ai/ha; for Corn plant response rating (0 to 100 scale): 125 g ai/ha
How it was run: as §2

[12] = test system: green foxtail (Setaria viridis); assay: as above; conditions: 10 days, 0 = no effect, 100 = complete control; for Foxtail, Green plant response rating (0-100): 31 g ai/ha; for Foxtail, Green plant response rating (0 to 100 scale): 125 g ai/ha
How it was run: as §2

[13] = test system: wheat (Triticum aestivum); assay: as above; conditions: 10 days, 0 = no effect, 100 = complete control; for Wheat plant response rating (0-100): 31 g ai/ha; for Wheat plant response rating (0 to 100 scale): 125 g ai/ha
How it was run: as §2

[14] = test system: oat, wild (wild oat, Avena fatua); assay: as above; conditions: 10 days, 0 = no effect, 100 = complete control; for Oat, Wild plant response rating (0-100): 31 g ai/ha; for Oat, Wild plant response rating (0 to 100 scale): 125 g ai/ha
How it was run: as §2

[15] = test system: ragweed (common ragweed, Ambrosia artemisiifolia); assay: Test A postemergence application, visual injury rating 0-100; conditions: for Ragweed plant response rating (0 to 100 scale): Postemergence
How it was run: as §2

[16] = test system: palmer (palmer amaranth, palmer pigweed, Amaranthus palmeri); assay: as above; conditions: for Amaranth, Palmer / Pigweed, Palmer plant response rating (0 to 100 scale): Postemergence
How it was run: as §2

[17] = test system: ryegrass, Italian (italian ryegrass, Lolium multiflorum); assay: as above; conditions: for Ryegrass, Italian plant response rating (0 to 100 scale): Postemergence
How it was run: as §2

kochia (Bassia scoparia) [18] = assay: as above; conditions: for Kochia plant response rating (0 to 100 scale): Postemergence
How it was run: as §2

soybean (Glycine max) [19] = assay: as above; conditions: for Soybean plant response rating (0 to 100 scale): Postemergence
How it was run: as §2

[20] = test system: blackgrass (Alopecurus myosuroides); assay: as above; conditions: for Blackgrass plant response rating (0 to 100 scale): Postemergence
How it was run: as §2

[21] = test system: barnyardgrass (Echinochloa crus-galli); assay: as above; conditions: for Barnyardgrass plant response rating (0 to 100 scale): Postemergence
How it was run: as §2

[22] = test system: galium (catchweed bedstraw, Galium aparine); assay: as above; conditions: for Galium plant response rating (0 to 100 scale): Postemergence
How it was run: as §2

corn (Zea mays) [23] = assay: as above; conditions: for Corn plant response rating (0 to 100 scale): Postemergence
How it was run: as §2

[24] = test system: green foxtail (Setaria viridis); assay: as above; conditions: for Foxtail, Green plant response rating (0 to 100 scale): Postemergence
How it was run: as §2

[25] = test system: horseweed (Erigeron canadensis); assay: as above; conditions: for Horseweed plant response rating (0 to 100 scale): Postemergence
How it was run: as §2

[26] = test system: wheat (Triticum aestivum); assay: as above; conditions: for Wheat plant response rating (0 to 100 scale): Postemergence
How it was run: as §2

[27] = test system: oat, wild (wild oat, Avena fatua); assay: as above; conditions: for Oat, Wild plant response rating (0 to 100 scale): Postemergence
How it was run: as §2

[28] = 31 g ai/ha, postemergence, 10 days, 0 = no effect, 100 = complete control
[29] = 125 g ai/ha, 10 days, 0 is no effect, 100 is complete control
[30] = 31 g ai/ha, greenhouse 10 days, 0 no effect, 100 complete control

CC1(C(=O)NC2C=CC(C(=O)O)C2)CN(c2cc(Cl)cc(Cl)c2)C(=O)O1 (centres unmarked) [Compound 62]
30: Ragweed plant response rating (0-100) [4] | Kochia plant response rating (0-100) (kochia (Bassia scoparia) [7]) | Blackgrass plant response rating (0-100) [9] | Corn plant response rating (0-100) (corn (Zea mays) [11])
80: Ryegrass, Italian plant response rating (0 to 100 scale) [6] | Barnyardgrass plant response rating (0-100) [10] | Corn plant response rating (0 to 100 scale) (corn (Zea mays) [11]) | Foxtail, Green plant response rating (0-100) [12] | Wheat plant response rating (0-100) [13] | Kochia plant response rating (0 to 100 scale) (kochia (Bassia scoparia) [18]; [29]) | Soybean plant response rating (0-100) (soybean (Glycine max) [19]; [28]) | Galium plant response rating (0-100) [22, 28] | Galium plant response rating (0 to 100 scale) [22, 29]
70: Blackgrass plant response rating (0 to 100 scale) [9] | Oat, Wild plant response rating (0 to 100 scale) [14] | Kochia plant response rating (0-100) (kochia (Bassia scoparia) [18]; [28]) | Horseweed plant response rating (0 to 100 scale) [25, 29]
60: Ryegrass, Italian plant response rating (0-100) [6] | Soybean plant response rating (0 to 100 scale) (soybean (Glycine max) [8])
20: Ragweed plant response rating (0 to 100 scale) [4]
90: Plant response rating, Ducksalad (0 to 100 scale, 0 is no effect and 100 is complete control) [1] | Amaranth, Palmer plant response rating (0-100) [5] | Kochia plant response rating (0 to 100 scale) (kochia (Bassia scoparia) [7]) | Foxtail, Green plant response rating (0 to 100 scale) [12] | Wheat plant response rating (0 to 100 scale) [13] | Ragweed plant response rating (0 to 100 scale) [15, 29] | Amaranth, Palmer plant response rating (0-100) [16, 28] | Amaranth, Palmer / Pigweed, Palmer plant response rating (0 to 100 scale) [16, 29] | Ryegrass, Italian plant response rating (0-100) [17, 28] | Soybean plant response rating (0 to 100 scale) (soybean (Glycine max) [19]; [29]) | Blackgrass plant response rating (0-100) [20, 28] | Foxtail, Green plant response rating (0-100) [24, 28] | Foxtail, Green plant response rating (0 to 100 scale) [24, 29] | Wheat plant response rating (0-100) [26, 28] | Wheat plant response rating (0 to 100 scale) [26, 29] | Oat, Wild plant response rating (0-100) [27, 28] | Oat, Wild plant response rating (0 to 100 scale) [27, 29]
50: Plant response rating, Barnyardgrass (0 to 100 scale, 0 is no effect and 100 is complete control) [2] | Horseweed plant response rating (0-100) [25, 28]
15: Plant response rating, Rice (0 to 100 scale, 0 is no effect and 100 is complete control) (rice (Oryza sativa))
0: Soybean plant response rating (0-100) (soybean (Glycine max) [8])
40: Oat, Wild plant response rating (0-100) [14] | Ragweed plant response rating (0-100) [15, 28]
100: Amaranth, Palmer plant response rating (0 to 100 scale) [5] | Barnyardgrass plant response rating (0 to 100 scale) [10] | Ryegrass, Italian plant response rating (0 to 100 scale) [17, 29] | Blackgrass plant response rating (0 to 100 scale) [20, 29] | Barnyardgrass plant response rating (0-100) [21, 28] | Barnyardgrass plant response rating (0 to 100 scale) [21, 29] | Corn plant response rating (0-100) (corn (Zea mays) [23]; [28]) | Corn plant response rating (0 to 100 scale) (corn (Zea mays) [23]; [29])
98: Plant response rating, Sedge, Umbrella (0 to 100 scale, 0 is no effect and 100 is complete control) [3]

CC1(C(=O)NC2C=CC(C(=O)OCC(F)(F)F)C2)CN(c2cc(Cl)cc(Cl)c2)C(=O)O1 (centres unmarked) [Compound 64]
20: Blackgrass plant response rating (0-100) [9] | Oat, Wild plant response rating (0-100) [14]
60: Wheat plant response rating (0-100) [13]
40: Soybean plant response rating (0 to 100 scale) (soybean (Glycine max) [8])
50: Plant response rating, Barnyardgrass (0 to 100 scale, 0 is no effect and 100 is complete control) [2] | Ryegrass, Italian plant response rating (0-100) [6] | Kochia plant response rating (0-100) (kochia (Bassia scoparia) [7]) | Oat, Wild plant response rating (0 to 100 scale) [14] | Ragweed plant response rating (0 to 100 scale) [15, 30] | Horseweed plant response rating (0 to 100 scale) [25, 30]
100: Amaranth, Palmer plant response rating (0-100) [5] | Amaranth, Palmer plant response rating (0 to 100 scale) [5] | Barnyardgrass plant response rating (0 to 100 scale) [21, 30] | Barnyardgrass plant response rating (0 to 100 scale) [21, 29] | Corn plant response rating (0 to 100 scale) (corn (Zea mays) [23]; [29])
90: Plant response rating, Ducksalad (0 to 100 scale, 0 is no effect and 100 is complete control) [1] | Ryegrass, Italian plant response rating (0 to 100 scale) [6] | Kochia plant response rating (0 to 100 scale) (kochia (Bassia scoparia) [7]) | Barnyardgrass plant response rating (0 to 100 scale) [10] | Foxtail, Green plant response rating (0 to 100 scale) [12] | Wheat plant response rating (0 to 100 scale) [13] | Amaranth, Palmer / Pigweed, Palmer plant response rating (0 to 100 scale) [16, 30] | Amaranth, Palmer / Pigweed, Palmer plant response rating (0 to 100 scale) [16, 29] | Ryegrass, Italian plant response rating (0 to 100 scale) [17, 29] | Soybean plant response rating (0 to 100 scale) (soybean (Glycine max) [19]; [29]) | Blackgrass plant response rating (0 to 100 scale) [20, 30] | Blackgrass plant response rating (0 to 100 scale) [20, 29] | Corn plant response rating (0 to 100 scale) (corn (Zea mays) [23]; [30]) | Foxtail, Green plant response rating (0 to 100 scale) [24, 30] | Foxtail, Green plant response rating (0 to 100 scale) [24, 29] | Wheat plant response rating (0 to 100 scale) [26, 30] | Wheat plant response rating (0 to 100 scale) [26, 29] | Oat, Wild plant response rating (0 to 100 scale) [27, 30] | Oat, Wild plant response rating (0 to 100 scale) [27, 29]
80: Ragweed plant response rating (0 to 100 scale) [4] | Barnyardgrass plant response rating (0-100) [10] | Corn plant response rating (0 to 100 scale) (corn (Zea mays) [11]) | Ragweed plant response rating (0 to 100 scale) [15, 29] | Ryegrass, Italian plant response rating (0 to 100 scale) [17, 30] | Kochia plant response rating (0 to 100 scale) (kochia (Bassia scoparia) [18]; [30]) | Kochia plant response rating (0 to 100 scale) (kochia (Bassia scoparia) [18]; [29]) | Soybean plant response rating (0 to 100 scale) (soybean (Glycine max) [19]; [30]) | Galium plant response rating (0 to 100 scale) [22, 30] | Galium plant response rating (0 to 100 scale) [22, 29] | Horseweed plant response rating (0 to 100 scale) [25, 29]
70: Blackgrass plant response rating (0 to 100 scale) [9] | Foxtail, Green plant response rating (0-100) [12]
75: Plant response rating, Sedge, Umbrella (0 to 100 scale, 0 is no effect and 100 is complete control) [3]
15: Plant response rating, Rice (0 to 100 scale, 0 is no effect and 100 is complete control) (rice (Oryza sativa))
0: Ragweed plant response rating (0-100) [4] | Soybean plant response rating (0-100) (soybean (Glycine max) [8]) | Corn plant response rating (0-100) (corn (Zea mays) [11])
